Data published in ChEMBL document CHEMBL1146650, “1,7-annulated indolocarbazoles as cyclin-dependent kinase inhibitors” (Bioorg Med Chem Lett, 2004).

Assays:
[1] = molecular target: Cyclin-dependent kinase 4/cyclin D1 (Homo sapiens, UniProt P11802); assay: Inhibitory activity against human Cyclin D1-cyclin-dependent kinase 4 activity; format: protein-complex assay
HCT-116 = assay: Cytotoxic activity against human colon HCT116 cell line; format: functional, cell-based
[2] = molecular target: Cyclin-dependent kinase 2/cyclin E (Homo sapiens, UniProt P24941); assay: Inhibition of human Cyclin E-cyclin-dependent kinase 2; format: protein-complex assay
[3] = molecular target: Cyclin-dependent kinase 2 (Homo sapiens, UniProt P24941); assay: Inhibition of Cyclin-dependent kinase 2
[4] = molecular target: Cyclin-dependent kinase 4 (Homo sapiens, UniProt P11802); assay: Inhibition of Cyclin-dependent kinase 4
Sequence of Cyclin-dependent kinase 4 (P11802 whole entry): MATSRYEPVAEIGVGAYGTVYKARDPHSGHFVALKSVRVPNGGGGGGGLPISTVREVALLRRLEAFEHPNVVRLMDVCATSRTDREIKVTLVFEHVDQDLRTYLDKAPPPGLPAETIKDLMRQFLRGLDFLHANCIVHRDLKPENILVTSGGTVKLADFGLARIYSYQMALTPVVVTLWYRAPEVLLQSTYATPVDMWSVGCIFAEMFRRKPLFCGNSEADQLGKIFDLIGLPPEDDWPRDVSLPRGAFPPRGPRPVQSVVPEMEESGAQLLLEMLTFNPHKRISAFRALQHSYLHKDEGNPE

Sequence of Cyclin-dependent kinase 4/cyclin D1 (P11802 whole entry): as above
Sequence of Cyclin-dependent kinase 4/cyclin D1 (P24385 whole entry, further chain): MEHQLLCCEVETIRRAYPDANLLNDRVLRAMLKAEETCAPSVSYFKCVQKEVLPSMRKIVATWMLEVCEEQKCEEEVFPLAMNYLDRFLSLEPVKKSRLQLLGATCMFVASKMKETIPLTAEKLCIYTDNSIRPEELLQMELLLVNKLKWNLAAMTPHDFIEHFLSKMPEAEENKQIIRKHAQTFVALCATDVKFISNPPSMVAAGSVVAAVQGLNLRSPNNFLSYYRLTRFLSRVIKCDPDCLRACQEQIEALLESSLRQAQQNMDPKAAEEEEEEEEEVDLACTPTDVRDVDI

Row | IC50 [1] [nM] | IC50 [2] [nM] | SMILES | IC50 (HCT-116) [nM] | IC50 [3] [nM] | IC50 [4] [nM]
1 | 52 | – | O=C1NC(=O)c2c1c1c3ccc(CO)cc3[nH]c1c1c2c2cccc3c2n1CCC3 | 340 | – | –
2 | 50 | – | O=C1NC(=O)c2c1c1c3ccc(CN4CCCC4)cc3[nH]c1c1c2c2cccc3c2n1CCC3 | 170 | – | –
3 | > 2000 | – | COC(=O)c1ccc2c(c1)[nH]c1c2c2c(c3c4cccc5c4n(c13)CCC5)C(=O)NC2=O | – | – | –
4 | 590 | – | O=C1NC(=O)c2c1c1c3ccc(-c4ccncc4)cc3[nH]c1c1c2c2cccc3c2n1CCC3 | 3290 | – | –
5 | 110 | > 200 | O=C1NC(=O)c2c1c1c3ccc(Cl)cc3[nH]c1c1c2c2cccc3c2n1CCC3 | 780 | – | –
6 | > 2000 | – | O=C1NC(=O)c2c1c1c3cc(F)ccc3[nH]c1c1c2c2cccc3c2n1CCC3 | – | – | –
7 | 90 | – | O=C1NC(=O)c2c1c1c3ccc(CN4CCSCC4)cc3[nH]c1c1c2c2cccc3c2n1CCC3 | 600 | – | –
8 | > 2000 | – | O=C1NC(=O)c2c1c1c3cc(F)c(F)cc3[nH]c1c1c2c2cccc3c2n1CCC3 | – | – | –
9 | > 2000 | – | O=C1NC(=O)c2c1c1c3cc(Br)ccc3[nH]c1c1c2c2cccc3c2n1CCC3 | – | – | –
10 | 87 | – | O=C1NC(=O)c2c1c1c3ccc(CN4CCCCC4)cc3[nH]c1c1c2c2cccc3c2n1CCC3 | 320 | – | –
11 | > 2000 | – | O=C1NC(=O)c2c1c1c([nH]c3cccc(F)c31)c1c2c2cccc3c2n1CCC3 | – | – | –
12 | 90 | 1000 | O=C1NC(=O)c2c1c1c3ccc(Br)cc3[nH]c1c1c2c2cccc3c2n1CCC3 | 2300 | – | –
13 | 420 | > 200 | O=C1NC(=O)c2c1c1c3ccc(F)cc3[nH]c1c1c2c2cccc3c2n1CCC3 | 2370 | – | –
14 | 75 | – | O=C1NC(=O)c2c1c1c3ccc(CN4CCOCC4)cc3[nH]c1c1c2c2cccc3c2n1CCC3 | 370 | – | –
15 | – | – | O=C1NC(=O)c2c1c1c3ccccc3n3c1c1c2c2ccccc2n1[C@H]1CC[C@@H]3O1 | – | 540 | 680
16 | 94 | 1000 | O=C1NC(=O)c2c1c1c3ccccc3[nH]c1c1c2c2cccc3c2n1CCCC3 | 5160 | – | –
17 | 240 | > 2000 | O=C1NC(=O)c2c1c1c3ccccc3[nH]c1c1c2c2cccc3c2n1CC3 | 1020 | – | –
18 | 120 | > 2000 | O=C1NC(=O)c2c1c1c3ccccc3[nH]c1c1c2c2cccc3c2n1CCCCC3 | 1250 | – | –
19 | 75 | – | O=C1NC(=O)c2c1c1c3ccc(CN4CCC4)cc3[nH]c1c1c2c2cccc3c2n1CCC3 | 230 | – | –
20 | > 2000 | – | COC(=O)c1ccc2[nH]c3c(c4c(c5c6cccc7c6n(c35)CCC7)C(=O)NC4=O)c2c1 | – | – | –
21 | 65 | – | O=C1NC(=O)c2c1c1c3ccc(CN4CCNCC4)cc3[nH]c1c1c2c2cccc3c2n1CCC3 | > 10000 | – | –
22 | 160 | – | O=C1NC(=O)c2c1c1c3ccc(-c4cccnc4)cc3[nH]c1c1c2c2cccc3c2n1CCC3 | 1130 | – | –
23 | 290 | > 2000 | O=C1NC(=O)c2c1c1c3ccc(C(F)(F)F)cc3[nH]c1c1c2c2cccc3c2n1CCC3 | 1480 | – | –
24 | 110 | > 1000 | O=C1NC(=O)c2c1c1c3ccccc3[nH]c1c1c2c2cccc3c2n1CCC3 | 1600 | – | –
25 | 79 | – | O=C1NC(=O)c2c1c1c3ccc(CN4CCCNCC4)cc3[nH]c1c1c2c2cccc3c2n1CCC3 | 7600 | – | –
26 | 170 | – | NCc1ccc2c(c1)[nH]c1c2c2c(c3c4cccc5c4n(c13)CCC5)C(=O)NC2=O | 2260 | – | –
